Data on ten compounds can be found in PMC8653689, “Phenanthrotriazine Derivatives Containing Arylidine Hydrazone Moieties as Novel Potential c-Met Inhibitors with Anticancer Effect” (Iranian Journal of Pharmaceutical Research : IJPR, 2021).

A word on the IC50: it is the concentration that inhibits the measured activity by half. Usually melting point stands for the temperature of the solid-liquid transition.

Data set [1] has as its system DU145 prostate cancer cells. Details: method as in PMID 28431881. Particulars: ref [30]; read-out: Antiproliferative activity against DU145 prostate cancer cells IC50; cited from earlier work.
For data set [2], the system named is A498 renal cancer cells. Details: method as in PMID 30721822, PMID 28431881. The following applies: at 10 μM; ref [4], [30]; cited from earlier work.
For data set [3], the system named is MGC-803 gastric cancer cells. Details: method as in PMID 28763643, PMID 24393539. The following applies: ref [13], [31]; read-out: Antiproliferative activity against MGC-803 gastric cancer cells IC50; cited from earlier work.
In data set [4] the test system is MCF7 breast cancer cells. Details: method as in PMID 28763643, PMID 24393539. The following applies: ref [13], [31]; read-out: Cytotoxic effect against MCF7 breast cancer cells IC50; cited from earlier work.
Data set [5] relates to MDA-MB435s melanoma cells. Details: method as in PMID 25470024. Particulars: ref [32], [33]; read-out: Cytotoxic effect against MDA-MB435s melanoma cells IC50; cited from earlier work.
Data set [6] deals with MDA-MB-231 breast cancer cells. Details: method as in PMID 25470024. The following applies: ref [32], [33]; read-out: Antiproliferative activity against MDA-MB-231 breast cancer cells IC50; cited from earlier work.
Data set [7] can be described thus: Solubility in aqueous media. The class given is physicochemical.
For data set [8], the system named is MOLT-4 (lymphoblastic leukemia) cells. The data set can be described thus: MTT reduction assay, antiproliferative effect, MOLT-4. The class given is cell-based, human. Particulars: Homo sapiens, MOLT-4, 72 h, read-out: MOLT-4 IC50. The text has this:
(§1) Fetal bovine serum (FBS), phosphate-buffered saline (PBS), RPMI-1640, and trypsin were obtained from Biosera (Ringmer, UK). Penicillin/streptomycin and MTT (3-(4,5-dimethylthiazol-2-yl)-2,5-diphenyltetrazolium bromide) were from Sigma-Aldrich (Saint Louis, MO, USA) and Invitrogen (San Diego, CA, USA), respectively. Dimethyl sulfoxide and doxorubicin were purchased from Merck (Darmstadt, Germany) and EBEWE Pharma (Unterach, Austria), respectively. The cells were acquired from Iranian Biological Resource Center, Tehran, Iran (HT-29 (human colorectal adenocarcinoma), MCF-7 (human breast adenocarcinoma) and Vero (African green monkey kidney) cells) or National Cell Bank of Iran, Pasteur Institute, Tehran, Iran (MOLT-4 (lymphoblastic leukemia) cells).
(§2) MTT reduction assay was employed to assess the viability of cancer cells after being treated with synthesized derivatives as previously described ([34]). The cells were plated in flat-bottom 96-well microplates, at densities of 3 × 10^4 cells/mL (100 μL in each well) and then incubated overnight at 37 °C. Three to four different concentrations of synthesized derivatives (in the range of 1 to 100 μM) were placed in triplicate wells and the plates were incubated for 72 h at 37 °C. […] At the end of the incubation time, 80 μL of the media in each well was replaced with the same amount of growth medium without phenol red containing 0.5 mg/mL of MTT. Cells were further incubated at 37 °C for 4 h and then 80 μL of the solution of each well was removed. The addition of DMSO (200μL) to each well solubilized the formazan crystals formed inside the viable cells after 1-hour incubation followed by 30-minute shaking. The optical absorbance of the final solution was determined at 570 nm using a Bio-Tek multimode plate reader (Synergy HTX). The cell viability was calculated compared to untreated control cells by comparison of absorbance measurements. CurveExpert software (version 1.34 for Windows) was used to determine the IC50 value for each compound. To confirm the results, every experiment was repeated 3 to 5 times.

Data set [9] has as its system HT-29 (human colorectal adenocarcinoma) cells. Description: MTT reduction assay, antiproliferative effect, HT-29. Format: cell-based. Particulars: Homo sapiens, HT-29, 72 h, read-out: HT-29 IC50.
From the text: as §1, §2

Data set [10] has as its system Vero (African green monkey kidney) cells. The data set can be described thus: MTT reduction assay, Vero normal cells. Format: cell-based. The following applies: Chlorocebus sabaeus, Vero, 72 h, read-out: Vero IC50.
From the text: as §1, §2
(Formazan colour is commonly taken as a measure of viable cells.)

Data set [11] concerns MCF-7 (human breast adenocarcinoma) cells. The data set can be described thus: MTT reduction assay, antiproliferative effect, MCF-7. The class given is cell-based.
From the text: as §1, §2

In data set [12] the test system is MCF-7 cells. Description: Hoechst 33258 staining, detection of apoptosis. Format: cell-based, human. Particulars: MCF-7, 72 h treatment, especially at 25 µM. The method, then: Hoechst 33258 was used as a DNA stain to detect apoptosis in cells. MCF-7 cells were seeded in a 6-well plate at a density of 5 × 10^4 cells/mL (2 mL per well) and incubated for 24 h. The whole medium was removed and different concentrations of test compounds 9g, 9j, 9k, and 9l diluted in 2 mL medium were placed in the different wells and incubated for 72 h. Afterward, the medium was removed again, 1 mL of 4% cold freshly prepared paraformaldehyde (PFA) was added, and cells were incubated for 20 min at room temperature. The cells were then washed 2 times with 1 ml PBS and incubated with 1 mL Hoechst 33258 2.5 µg/mL for 30 min in the dark at room temperature ([36], [37]). In the end, the cells were washed with 1 mL PBS and imaged with a fluorescence microscope.
Figure 3 Detection of apoptosis in MCF-7 cells by Hoechst staining. Hoechst 33258 was used as a DNA stain to detect apoptosis in MCF-7 cells treated with synthesized compounds. The cells were seeded in a 6-well plates and treated with different concentrations of test compounds 9g, 9j, 9k and 9l for 72 h. After removing the whole medium, 4% cold freshly prepared paraformaldehyde (PFA) was added for 20 min at room temperature, the cells were then washed twice with PBS, and incubated with Hoechst 33258 2.5 µg/mL for 30 min at room temperature in the dark. Finally, the cells were washed with PBS again and the plates were imaged with a fluorescence microscope

Data set [13] has as its system MCF-7 cells. The data set can be described thus: Cell cycle analysis, propidium iodide/RNase flow cytometric assay. Format: cell-based, human. The following applies: 48 h; for Effect on number of cells in G0/G1: MCF-7, 10 and 25 µM. The method, then:
Alterations of the cell cycle were determined by the propidium iodide (PI)-RNase flow cytometric method ([35]). MCF-7 cells were used to determine the percentage of cells in each phase of the cell cycle. In 6-well plates, 2 × 10^5 cells were seeded in each well and incubated at 37 °C for 48 h. Afterward, they were treated for 48 h with derivatives 9g, 9j, 9k and 9l at 10 and 25 μM. The cells were then collected after trypsinization, washed twice with PBS, and fixed by 5 mL ethanol 70% for at least 24 h at -20 °C. After fixation, MCF-7 cells were washed with PBS two times and stained with PI 20 µg/mL and RNase 200 µg/mL for 30 min in the dark at room temperature. A FACS Calibur ﬂow cytometer (BD Biosciences) was used for the assays and 20,000 events were analyzed. The number of cells distributed in sub-G1, G0/G1, S, and G2/M were determined by CellQuest software (BD, USA).
Figure 2 Representative cell cycle histograms of MCF-7 cells treated with synthesized derivatives. Analysis of the percentage of cells in different phases of cell cycle was performed using propidium iodide (PI)-RNase flow cytometric assay. MCF-7 cells were seeded in 6-well microplates and treated with synthesized derivatives for 48 h. The cells were then collected and fixed in 70% ethanol overnight at -20 °C. In the end, the cells were stained with DNA staining solution (PI 20 µg/mL and RNase 200 µg/mL) for 30 min and 20,000 events were analyzed by a FACS Calibur ﬂow cytometer (BD Biosciences). Representative histograms of cells treated with compounds 9g, 9j, 9k and 9l are shown
(In general: Flow cytometry measures light scatter and fluorescence of single cells or particles in a stream.)

Where [14] appears, read: Homo sapiens, MCF7, 72 h, read-out: MCF-7 IC50, MTT, 72 h incubation.

The structures appear in SMILES notation. Where two headings read alike, the source gives them in different places.

As for `O=C1C(=O)c2ccccc2-c2ccccc21` [Compound 1], the IC50 in data set [1] was 1.5 µM.
For the compound `O=C1NC(=O)/C(=C/c2ccc(-c3nc4c5ccccc5c5ccccc5c4[nH]3)cc2)S1` [Compound 2], the “Growth inhibition in A498 renal cancer cells” value in data set [2] is given as 93%.
`Sc1nnc2c3ccccc3c3ccccc3c2n1` [Compound 3]: the melting point fell in the range of 122 to 124 °C. Further, the IC50 in data set [3] was 7.6 µM.
On to `O=[N+]([O-])c1cccc(/C=N/Nc2nnc3c(n2)-c2cccc4cccc-3c24)c1` [Compound 4], for which the IC50 in [4] was 61.9 µM.
As for `CSc1nnc2c3ccccc3c3ccccc3c2n1` [Compound 5], in data set [5], the IC50 was 120 µM.
For `Cc1csc(N/N=C/c2ccccc2)n1` [Compound 6], the IC50 in data set [6] is 3.9 µM.
For the compound `COc1ccc(C=NNc2nnc3c4ccccc4c4ccccc4c3n2)cc1` [Compound 9c, 3-(2-(4-methoxybenzylidene)hydrazinyl)phenanthro[9,10-e][1,2,4]triazine], the melting point was in the range of 288 to 292 °C. Also, in data set [7], the “Solubility in aqueous media” value was “very low solubility in aqueous media”.
Consider `Oc1ccccc1C=NNc1nnc2c3ccccc3c3ccccc3c2n1` [Compound 9d, 2-((2-(phenanthro[9,10-e][1,2,4]triazin-3-yl)hydrazono)methyl)phenol], for which the melting point lay in the range of 328 to 332 °C. In addition, in data set [7], the “Solubility in aqueous media” value is “very low solubility in aqueous media”.
Compound `C(=NNc1nnc2c3ccccc3c3ccccc3c2n1)c1ccc[nH]1` [Compound 9k, 3-(2-((1H-pyrrol-2-yl)methylene)hydr-zinyl)phenanthro[9,10-e][1,2,4]triazine] showed a melting point of 210 to 214 °C. The IC50 in data set [8] was 1.7 ± 0.2 µM. Moreover, in [9], the IC50 was 14.3 ± 2.8 µM. For the same compound, the IC50 in data set [10] stood at 95.4 ± 12.4 µM. Also, in data set [11] (setting [14]), the IC50 was found to be 4.5 ± 0.16 µM. Also, the IC50 in [11] (read-out: MCF-7 IC50, MTT, 72 h incubation) was found to be 4.7 ± 0.3 µM. Besides, the “Apoptosis induction by Hoechst 33258 staining” value in data set [12] is “showed signs of apoptosis”. In [13] (MCF-7, 10 µM), the “Percentage of cells in G0/G1” value is 77.30 ± 2.8, the “Percentage of cells in G2/M” value came out at 16.63 ± 2.5, the “Percentage of cells in S” value is reported as 4.63 ± 0.7 and the “Percentage of cells in Sub G1” value was determined as 1.31 ± 0.1. Also, in data set [13] (MCF-7, 25 µM), the “Effect on cells in sub-G1 phase” value is listed as “increased the cells in the sub-G1 phase”, the “Percentage of cells in G0/G1” value turned out to be 77.42 ± 3.7, the “Percentage of cells in G2/M” value is 16.13 ± 2.9 and the “Percentage of cells in S” value is 4.68 ± 1.2. Further, the “Percentage of cells in Sub G1” value in [13] (MCF-7, 25 µM) turned out to be 1.69 ± 0.4. Also, the “Effect on number of cells in G0/G1” value in [13] was “significantly enhanced the number of cells in the G0/G1”.
`C(=NNc1nnc2c3ccccc3c3ccccc3c2n1)c1cccs1` [Compound 9l, 3-(2-(thiophene-2-ylmethylene)hydraz-inyl)phenanthro[9,10-e][1,2,4]triazine] showed a melting point of 228 to 231 °C. Besides, the IC50 in data set [8] worked out at 6.8 ± 0.7 µM. For the same compound, in data set [9], the IC50 is 12.9 ± 3.5 µM. In addition, the IC50 in data set [10] was found to be 6.2 ± 3.1 µM. For the same compound, the IC50 in data set [11] (setting [14]) is 6.9 ± 0.9 µM. Moreover, the “Apoptosis induction by Hoechst 33258 staining” value in [12] is listed as “showed signs of apoptosis”. Further, in data set [13] (MCF-7, 10 µM), the “Percentage of cells in G0/G1” value was found to be 73.76 ± 0.6, the “Percentage of cells in G2/M” value is on record as 18.50 ± 1.7, the “Percentage of cells in S” value was 6.28 ± 1.0 and the “Percentage of cells in Sub G1” value is given as 1.32 ± 0.3. In data set [13] (MCF-7, 25 µM), the “Effect on cells in sub-G1 phase” value was “increased the cells in the sub-G1 phase”, the “Percentage of cells in G0/G1” value came out at 72.07 ± 0.9, the “Percentage of cells in G2/M” value is 19.43 ± 0.8 and the “Percentage of cells in S” value is reported as 6.75 ± 0.9. Besides, the “Percentage of cells in Sub G1” value in [13] (MCF-7, 25 µM) is 1.56 ± 0.3. Moreover, the “Effect on number of cells in G0/G1” value in [13] is “significantly enhanced the number of cells in the G0/G1”.
